Read-outs that look alike come from different tables or passages of the source.
Key:
[1] = Hydrogen Peroxide Decomposition Ratio Measurement Protocol; conditions: for Hydrogen Peroxide Decomposition Ratio (% Loss) / Peroxide % at t = 0 / Peroxide % at t = 30mn: pH 10, 300 ppm copper sulphate, 0.026M chelant; for Hydrogen Peroxide Decomposition Ratio (% Loss): after 30 minutes
Procedure: The Hydrogen Peroxide Decomposition Ratio Measurement Protocol is defined as follows: 6.0% by weight of concentrated ammonium hydroxide (30% active ammonia) is added to deionised water and the pH of the solution is adjusted to 10 using acetic acid. 300 ppm of copper sulphate and 0.026M of the chelant to be tested are added to said composition. […] The initial level of hydrogen peroxide is measured at this moment (t=0); the final level of hydrogen peroxide is measured after 30 minutes. The value of the ratio of the hydrogen peroxide concentration at t=0 and at t=30 mn is the Hydrogen Peroxide Decomposition Ratio (% Loss).
The initial and final level of hydrogen peroxide can be measured according to any standard technique. The following is a well-known and standard technique that was used by the inventors: 0.2-0.3 g (the exact quantity being precisely measured) of the solution to be titrated is added to 40 ml of 10% acetic acid. […] The level of hydrogen peroxide (% Peroxide) is then calculated from the following equation: [formula]
Three replicate runs are made at both t=0 and t=30 mn and then averaged to calculate the Hydrogen Peroxide Decomposition Ratio (% Loss).

[2] = 25deg, 0.1M ionic strength; fully deprotonated chelants; cited from earlier work
[3] = Goniophotometer Damage Assessing Protocol after Oxidative Hair Treatment Protocol With 10 Intermediate Washes; set-up: species or system human
Procedure: A bleaching composition comprising the chelant to be tested is prepared by mixing in equal weight amounts a hydrogen peroxide emulsion base and an alkaline (high pH) emulsion base. 2 g Of the bleaching composition per g of hair to be treated was applied on the hair switches and massaged in thoroughly. The hair switches were then wrapped in a plastic film and put in an oven at 30° C. […] The rinsing water flow was adjusted to 6 liters per minute). […] The excess water was then squeezed out of the hair, and the hair dried with a fan. […] Prell® shampoo was using during these tests. This Oxidative Hair Treatment Protocol can be repeated several times.

[4] = log Conditional Stability Constant at pH 10 with Cu; conditions: for Ratio Cu/Ca of log Conditional Stability Constants: log KCuL / log KCaL
[5] = log Conditional Stability Constant at pH 10 with Ca
[6] = tetra-protonated chelants; cited from earlier work
[7] = FT-IR Damage Assessing Protocol after 5-Cycle Oxidative Hair Treatment Protocol With 2 Intermediate Washes; set-up: species or system human; conditions: for Damage after 5 cycles (cysteic acid units): 2 intermediate washes, pH 10
Procedure: For each chelant tested, seven switches of virgin dark hair were used. […] The switches usually weighed about 1.5 g each and are treated stepwise according to the following protocol.
A bleaching composition comprising the chelant to be tested is prepared by mixing in equal weight amounts a hydrogen peroxide emulsion base and an alkaline (high pH) emulsion base.
2 g Of the bleaching composition per g of hair to be treated was applied on the hair switches and massaged in thoroughly. The hair switches were then wrapped in a plastic film and put in an oven at 30° C. After 30 mn, they were removed from the oven and from the wrapping film and rinsed for 1 mn in water. 0.1 g of shampoo per g. of hair was then added and milked for 30 s at a rate of at least 150 strokes a minute before rinsing for 30 s. […] The concentration of copper (Cu^2+) ions was kept at about 1 ppm (+/−10%), the exact concentrations being measured by a standard analytic method. The rinsing water flow was adjusted to 6 liters per minute). The same shampooing and rinsing process was repeated another time (this is the “Oxidative Hair Treatment Protocol With 2 Intermediate Washes” referred to in the claims) or 9 additional times (this is the “Oxidative Hair Treatment Protocol With 10 Intermediate Washes” referred to in the claims) depending on the Damage Assessment Protocol used. The excess water was then squeezed out of the hair, and the hair dried with a fan. Any standard shampoo can be used in this protocol as long as it is free from transition metal ions such as copper ion and that the level chelants is less than 0.1% by weight of the shampoo. Prell® shampoo was using during these tests.
This Oxidative Hair Treatment Protocol can be repeated several times. […] This process is described as a 5-Cycle Oxidative Hair Treatment Protocol With 2 or 10 Intermediate Washes.
In particular, these authors have shown that the method is suitable for quantifying the amount of cysteic acid that is produced from the oxidation of cystine. In general, the oxidation of cystine is thought to be a suitable marker by which to monitor the overall oxidation of the keratinous part of the fiber.
They have shown that this technique is more suitable than using the FT-IR method in simple transmission or microscope modes. […] The detailed description of the method used for testing the different damage inhibitors follows thereafter:
A Perkin Elmer Spectrum® 1 Fourier Transform Infrared (FTIR) system equipped with a diamond Attenuated Total Internal Reflection (ATR) cell was used to measure the cysteic acid concentration in human hair. In this method, hair switches of various sizes and colours can be used. The switches were platted (˜1 plait per cm) in order to minimize variations in surface area of contact between readings. The Oxidative Hair Treatment Protocol described above was repeated for 5 cycles to mimic the behavior of hair after repeated bleaching cycles. Following this treatment, four readings per switch were taken (˜⅓ and ⅔ s down the switch on both sides), and an average calculated. Backgrounds were collected every 4 readings, and an ATR cell pressure of 1N/m was employed. The cell was cleaned with ethanol between each reading, and a contamination check performed using the monitor ratio mode of the instrument. […] The original spectra were initially converted to absorbance, before being normalized to the 1450 cm^−1 band (the characteristic and invariant protein CH2 stretch). This normalized absorbance was then twice derivatised using a 13 point averaging. The value of the 1450 cm^−1 normalized 2nd derivative of the absorbance at 1040 cm^−1 was taken as the relative concentration of cysteic acid. This figure was multiplied by −1×10^−4 to recast it into suitable units. […] The following instrumental conditions were employed:
The weight percentages for each chelant are indicated in the first line of the table below.

[8] = 25deg, 0.1M ionic strength; fully deprotonated chelants; cited from earlier work; remark: listed apart in the source
[9] = not given; remark: listed apart in the source
[10] = 1.9% weight on-head, tri-sodium salt, 5 cycles
[11] = 2.0% weight on-head (tetra-sodium EDTA, di-sodium HEDP), 5 cycles
[12] = 3.8% weight on-head, tetra-sodium salt, 5 cycles

| SMILES | log Conditional Stability Constant (pH 10) Cu [4] | Ratio Cu/Ca of log Conditional Stability Constants [4] | log Conditional Stability Constant (pH 10) Ca [5] | Hydrogen Peroxide Decomposition Ratio (% Loss) [1] | Peroxide % at t = 0 [1] | Peroxide % at t = 30mn [1] | log K (stability constant, 1:1 complex) Ca [2] | log protonation constant H2L^2− [6] | log protonation constant H3L^− [6] | log protonation constant H4L [6] | log protonation constant HL^3− [6] | log K (stability constant, 1:1 complex) Cu [8] | Damage after 5 cycles (cysteic acid units) [7, 11] | also measured |
| --- | --- | --- | --- | --- | --- | --- | --- | --- | --- | --- | --- | --- | --- | --- |
| CC(C(=O)O)N(CC(=O)O)CC(=O)O (stereo not drawn) [MGDA, methylglycinediacetic acid] | – | – | – | 11.3% | 3.498% | 3.104% | – | – | – | – | – | – | – | – |
| O=C(O)CC(NCC(O)CNC(CC(=O)O)C(=O)O)C(=O)O (stereo not drawn) [HPPDS, 2-hydroxypropylenediamine-N,N′-disuccinic acid] | – | – | – | – | – | – | – | – | – | – | – | – | – | Normalized shine ratio (hair treated after 9 cycles/ virgin hair) ([3]; 0.97 weight %, tetra-sodium salt): 1.00 |
| O=P(O)(O)CN(CCN(CP(=O)(O)O)CP(=O)(O)O)CCN(CP(=O)(O)O)CP(=O)(O)O [DTPMP, diethylene-triamine-penta-(methylenephosphonic acid)] | – | – | – | – | 3.078% | 2.964% | – | – | – | – | – | – | – | log Conditional Stability Constant (pH 10) Ca: 4.74; log Conditional Stability Constant (pH 10) Cu [9]: 15.14; Damage benefit vs EDTA 2% [7, 12]: +14%; Damage after 5 cycles (cysteic acid units) [7, 12]: 142 cysteic acid units |

Continued, in another order:

| log Conditional Stability Constant (pH 10) Cu [4] | Ratio Cu/Ca of log Conditional Stability Constants [4] | log Conditional Stability Constant (pH 10) Ca [5] | SMILES | Hydrogen Peroxide Decomposition Ratio (% Loss) [1] | Peroxide % at t = 0 [1] | Peroxide % at t = 30mn [1] | log K (stability constant, 1:1 complex) Ca [2] | log protonation constant H2L^2− [6] | log protonation constant H3L^− [6] | log protonation constant H4L [6] | log protonation constant HL^3− [6] | log K (stability constant, 1:1 complex) Cu [8] | Damage after 5 cycles (cysteic acid units) [7, 11] | also measured |
| --- | --- | --- | --- | --- | --- | --- | --- | --- | --- | --- | --- | --- | --- | --- |
| 16.04 | 3.76 | 4.27 | O=C(O)CC(NCCNC(CC(=O)O)C(=O)O)C(=O)O (stereo not drawn) [EDDS, ethylenediamine-N,N′-disuccinic acid] | 1.5% | 3.150% | 3.104% | 4.58 | 6.84 | 3.86 | 2.95 | 10.01 | 18.35 | – | Normalized shine ratio (hair treated after 9 cycles/ virgin hair) ([3]; 0.95 weight %, tri-sodium salt): 1.03; Hair damage compared with any other chelant (in words) ([7]; 1.9% by weight, 5 cycles): much less damage; Damage benefit vs EDTA 2% [7, 10]: +33%; Damage after 5 cycles (cysteic acid units) [7, 10]: 110 cysteic acid units; Damage benefit (in words) ([7]; concentrations much lower than 1.9% by weight on head): excellent benefits |
| 8.98 | 1.75 | 5.13 | CC(O)(P(=O)(O)O)P(=O)(O)O [HEDP, 1-hydroxyethane-1,1-diphosphonic acid] | 32.3% | 4.126% | 2.792% | 6.0 | 6.88 | 2.53 | 1.8 | 10.8 | 11.84 | 163 cysteic acid units | Normalized shine ratio (hair treated after 9 cycles/ virgin hair) ([3]; 1.0 weight % (tetra-sodium EDTA, di-sodium HEDP)): 0.730; Damage benefit vs EDTA 2% ([7]; 2.0% weight on-head, di-sodium salt, 5 cycles): +1% |
| 16.37 | – | – | O=C(O)CN(CCN(CC(=O)O)CC(=O)O)CC(=O)O [EDTA, ethylenediaminetetraacetic acid] | – | 3.576% | 3.573% | 10.65 | – | – | – | – | 18.78 | 165 cysteic acid units | Capacity at inhibiting the red-ox chemistry of copper (in words) ([1]; lab condition, de-ionized water): very good capacity; Damage prevention properties (in words) ([7]; real conditions of use, high copper and Ca^2+ concentrations): very poor damage prevention properties; Damage benefit (in words) ([7]; unless utilized at levels much higher than 0.1%): very little benefits |
